Measurements: US9029076B2, “Tissue preservation and fixation method” (George Mason Research Foundation, Inc., priority 2006, dated 2015)
“Also recorded” adds a separate entry of the source.

Assays:
mTOR (S2448) = experiment: RPA of fixed versus snap frozen samples; conditions: cellular equivalents printed on reverse phase protein microarrays, FIG. 7
Excerpt: We compared phosphoproteins from real time, room temperature shipping conditions in a methanol:water or ethanol:water fixative to samples that were snap frozen.

ERK T202/Y204 = experiment: RPA phosphoprotein level after 24 h storage of tumor needle samples in preservatives; conditions: 24 h in preservative at 4° C., relative normalized RPA intensity
Procedure: (§1) The RPA format, originated by the present inventors and collaborators (see, e.g., Paweletz et al. (2001) Oncogene 20, 1981-1989), immobilizes an individual test sample in a miniature dilution curve such that an array contains hundreds of different patient samples, treatments, or time points. In the RPA format, each array is incubated with one detection protein (e.g. anti-peptide antibody), and a single analyte endpoint is measured and directly compared across multiple samples. Briefly, the lysates are printed on glass backed nitrocellulose array slides (FAST Slides Whatman, Florham Park, N.J. or ONCYTE slides Grace BioLabs, Bend, Oreg.) using a robotic array printing device (GMS 417 arrayer (Affymetrix, Santa Clara, Calif. or Aushon 2470, Aushon Biosystems, Burlington, Mass. equipped with 125-500 μm pins). Each lysate is printed in a dilution curve representing neat, 1:2, 1:4, 1:8, 1:16 and negative control dilutions. The slides are stored with desiccant (Drierite, W. A. Hammond, Xenia, Ohio) at −20° C. prior to immunostaining.
(§2) Immunostaining is performed on an automated slide stainer per manufacturer's instructions (Autostainer CSA kit, Dako, Carpinteria, Calif.). Each slide is incubated with a single primary antibody at room temperature for 30 minutes. Polyclonal primary antibodies can be, e.g.: GSK3α/β Tyr279/216 (Invitrogen-Biosource, Carlsbad, Calif.), BCL-2, HIF-1α (BD, Franklin Lakes, N.J.), 4EBP1, FKHR ser256, eIF4E, eIF4E ser209, eIF4G, eIF4G ser1108, IGFR-β, IRS-1, IRS-2, IRS-1 ser612, SGK, Bak, Bax, BAD, BAD ser112, BAD ser136, BAD ser155, B-Raf, mTOR, mTOR ser2448, p70S6 Thr389, p70S6 kinase, p70S6 ser371, S6 kinase ser240/244, Akt, Akt ser473, Akt Thr308, 4EBP1 ser65, 4EBP1 ser70, and 4EBP1 Thr37/46 (Cell Signaling Technology, Danvers, Mass.). A negative control slide is incubated with antibody diluent. Secondary antibody can be goat anti-rabbit IgG H+L (1:5000) (Vector Labs, Burlingame, Calif.).
(§3) Each array is scanned, spot intensity analyzed, data normalized, and a standardized, single data value can be generated for each sample on the array (Image Quant v5.2, GE Healthcare, Piscataway, N.J.) or MicroVigene v2.8, Vigene Tech, Billerica, Mass.). Spot intensity is integrated over a fixed area. Local area background intensity is calculated for each spot with the unprinted adjacent slide background. […] The Ward method for two-way hierarchical clustering can be performed using JMP v5.0 (SAS Institute, Cary N.C.). Wilcoxon two-sample rank sum test can be used to compare values between two groups. P values less than 0.05 are considered significant. When one cannot assume a normal distribution of the variables, non-parametric methods are used. Kaplan-Meier (log-rank) survival estimates for univariate survival analysis can be used.
(§4) Briefly, tumor tissues from gastrinoma/liver, mesothelioma and parathyroid tumors were sampled by five needle passes and placed into the preservatives listed in Table 5. […] Immediate lysis and denaturation of the cellular proteins were accomplished by standard Pierce Tissue Protein Extraction Buffer (T-PER), with additional SDS, denaturing reagents, and detergents. The cell samples were stored 24 h in the listed preservatives at 4° C. and then the listed phosphoprotein endpoints were measured. […] Some values dropped to zero while others are markedly elevated compared to the freshly lysed cell baseline. […] They were unable to stabilize the phosphorylation state of key signal proteins over a storage period of 24 hours, which is a typical time delay for cell or tissue shipment. Numbers in the table are relative normalized intensity values using the RPA technology described herein.

AKT ser473 = experiment: as above; conditions: 24 h in preservative at 4° C., relative normalized RPA intensity
Procedure: as §1, §2, §3, §4

CREB ser133 = experiment: as above; conditions: 24 h in preservative at 4° C., relative normalized RPA intensity
Procedure: as §1, §2, §3, §4

IRS-1 ser612 = experiment: as above; conditions: 24 h in preservative at 4° C., relative normalized RPA intensity
Procedure: as §1, §2, §3, §4

AKT Thr308 = experiment: as above; conditions: 24 h in preservative at 4° C., relative normalized RPA intensity
Procedure: as §1, §2, §3, §4

EGFR Y1148 = experiment: as above; conditions: 24 h in preservative at 4° C., relative normalized RPA intensity
Procedure: as §1, §2, §3, §4

CC3 Asp175 = experiment: as above; conditions: 24 h in preservative at 4° C., relative normalized RPA intensity
Procedure: as §1, §2, §3, §4

p38 T180/182 = experiment: as above; conditions: 24 h in preservative at 4° C., relative normalized RPA intensity
Procedure: as §1, §2, §3, §4

GSK3ab ser21/9 = experiment: as above; conditions: 24 h in preservative at 4° C., relative normalized RPA intensity
Procedure: as §1, §2, §3, §4

IKappa-Ba ser32 = experiment: as above; conditions: 24 h in preservative at 4° C., relative normalized RPA intensity
Procedure: as §1, §2, §3, §4

phosphoproteins [1] = experiment: Overall phosphoprotein preservation of FNA / tumor needle samples stored 24 h at 4° C.; conditions: compared to directly lysed cell baseline
Procedure: Fine Needle Aspirate (FNA) samples were stored for 24 hours at 4° C. in each of the chemicals/chemical solutions. The cellular samples were further processed for reverse phase protein microarray analysis. […] Each set of 4 horizontal spots by 2 vertical spots represent an original and its replicate sample, printed on the array in two-fold dilutions, for each FNA sample. The dilution series represents undiluted, 1:2, 1:4 and 1:8 dilutions of each sample.
A variety of types of tumor tissues were incubated in a series of conventional preservatives to determine if the preservatives were able to stabilize selected phosphoproteins.

phosphoproteins [2] = conditions: for phosphoprotein endpoints, room temperature shipping in fixative versus snap frozen: real time, room temperature shipping conditions, FIGS. 6A, 6B and 7
EGFR Y1173 = experiment: Phosphorylation over time with phosphatase inhibitor in cell culture model; type: cell-based; conditions: living cells exposed to phosphatase inhibitor, FIG. 10A
Procedure: (§5) The phosphorylation rises rapidly to a high level in less than 40 minutes, which is followed by cell death.
(§6) These continuing metabolic processes present problems for the preservation of phosphoproteins in a sample. For example, the inventors have discovered that the addition of a phosphatase inhibitor alone, designed to block the removal of protein phosphate groups by endogenous phosphatases, can cause unchecked and highly abnormal upward accumulation of abnormal levels of phosphoproteins, reaching a lethal level.

[3] = system: cultured cell line (A549); experiment: as above; type: cell-based
Procedure: as §5, §6

[4] = Gastrinoma/liver tumor, Lysis Buffer = frozen immediately after lysis
[5] = Parathyroid tumor, Lysis Buffer = frozen immediately after lysis

Compound	ERK T202/Y204 Normalized data (ERK T202/Y204; [4])	ERK T202/Y204 Normalized data (ERK T202/Y204; Mesothelioma)	ERK T202/Y204 Normalized data (ERK T202/Y204; [5])	AKT ser473 Normalized data (AKT ser473; [4])	AKT ser473 Normalized data (AKT ser473; Mesothelioma)	AKT ser473 Normalized data (AKT ser473; [5])	CREBser133 Normalized data (CREB ser133; [4])	CREBser133 Normalized data (CREB ser133; Mesothelioma)	CREBser133 Normalized data (CREB ser133; [5])	IRS-1 ser612 Normalized data (IRS-1 ser612; [4])	IRS-1 ser612 Normalized data (IRS-1 ser612; Mesothelioma)	IRS-1 ser612 Normalized data (IRS-1 ser612; [5])	AKT Thr308 Normalized data (AKT Thr308; [4])	AKT Thr308 Normalized data (AKT Thr308; Mesothelioma)	AKT Thr308 Normalized data (AKT Thr308; [5])	EGFR Y1148 Normalized data (EGFR Y1148; [4])	EGFR Y1148 Normalized data (EGFR Y1148; Mesothelioma)	EGFR Y1148 Normalized data (EGFR Y1148; [5])	CC3 Asp175 Normalized data (CC3 Asp175; [4])	CC3 Asp175 Normalized data (CC3 Asp175; Mesothelioma)	also measured
CO [20-50% methanol in water, methanol]	–	–	–	–	–	–	–	–	–	–	–	–	–	–	–	–	–	–	–	–	level of mTOR (S2448) phosphorylation, fixed versus snap frozen (mTOR (S2448)): equivalence
CCO [70% ethanol, ethanol]	11.51	30.74	37.27	0.00	10.94	7.18	103.07	53.05	67.91	19.74	12.16	15.92	0.00	15.15	18.57	39.95	30.71	47.58	5.09	15.92	CC3 Asp175 Normalized data (CC3 Asp175; [5]): 19.16; p38 T180/182 Normalized data (p38 T180/182; [4]): 27.50; p38 T180/182 Normalized data (p38 T180/182; Mesothelioma): 49.07; p38 T180/182 Normalized data (p38 T180/182; [5]): 45.63; GSK3ab ser21/9 Normalized data (GSK3ab ser21/9; [4]): 19.01; GSK3ab ser21/9 Normalized data (GSK3ab ser21/9; Mesothelioma): 31.87; GSK3ab ser21/9 Normalized data (GSK3ab ser21/9; [5]): 60.83; IKappa-Ba ser32 Normalized data (IKappa-Ba ser32; [4]): 28.36; IKappa-Ba ser32 Normalized data (IKappa-Ba ser32; Mesothelioma): 25.09; IKappa-Ba ser32 Normalized data (IKappa-Ba ser32; [5]): 32.97; preservation of phosphoproteins overall (phosphoproteins [1]): significant, reproducible degradation of the phospho endpoints
CC(C)=O [Acetone]	46.15	55.31	77.97	4.56	27.53	13.12	91.79	83.10	83.74	33.10	10.72	40.55	25.45	30.05	21.93	65.10	49.89	81.36	38.23	26.75	CC3 Asp175 Normalized data (CC3 Asp175; [5]): 29.46; p38 T180/182 Normalized data (p38 T180/182; [4]): 77.58; p38 T180/182 Normalized data (p38 T180/182; Mesothelioma): 87.57; p38 T180/182 Normalized data (p38 T180/182; [5]): 72.96; GSK3ab ser21/9 Normalized data (GSK3ab ser21/9; [4]): 35.47; GSK3ab ser21/9 Normalized data (GSK3ab ser21/9; Mesothelioma): 55.72; GSK3ab ser21/9 Normalized data (GSK3ab ser21/9; [5]): 123.00; IKappa-Ba ser32 Normalized data (IKappa-Ba ser32; [4]): 48.91; IKappa-Ba ser32 Normalized data (IKappa-Ba ser32; Mesothelioma): 36.08; IKappa-Ba ser32 Normalized data (IKappa-Ba ser32; [5]): 49.65
CO [Methanol]	46.47	18.87	28.54	4.15	11.14	11.06	131.23	114.37	65.44	65.97	37.33	23.51	43.73	32.75	28.31	81.50	63.00	53.41	37.64	16.93	CC3 Asp175 Normalized data (CC3 Asp175; [5]): 14.80; p38 T180/182 Normalized data (p38 T180/182; [4]): 76.09; p38 T180/182 Normalized data (p38 T180/182; Mesothelioma): 53.36; p38 T180/182 Normalized data (p38 T180/182; [5]): 34.09; GSK3ab ser21/9 Normalized data (GSK3ab ser21/9; [4]): 33.59; GSK3ab ser21/9 Normalized data (GSK3ab ser21/9; Mesothelioma): 66.02; GSK3ab ser21/9 Normalized data (GSK3ab ser21/9; [5]): 53.28; IKappa-Ba ser32 Normalized data (IKappa-Ba ser32; [4]): 54.98; IKappa-Ba ser32 Normalized data (IKappa-Ba ser32; Mesothelioma): 41.23; IKappa-Ba ser32 Normalized data (IKappa-Ba ser32; [5]): 36.25
CCO [ethanol:water, ethanol]	–	–	–	–	–	–	–	–	–	–	–	–	–	–	–	–	–	–	–	–	phosphoprotein endpoints, room temperature shipping in fixative versus snap frozen (phosphoproteins [2]): equivalence of the two methods
CCO [ethanol]	–	–	–	–	–	–	–	–	–	–	–	–	–	–	–	–	–	–	–	–	preservation of phosphoproteins overall (phosphoproteins [1]): do not adequately preserve the phosphoproteins
CO [methanol: water, methanol]	–	–	–	–	–	–	–	–	–	–	–	–	–	–	–	–	–	–	–	–	RPA spot intensities, fixed versus frozen tissue (phosphoproteins [2]; FIG. 6A): equivalent spot intensities; phosphoprotein endpoints, room temperature shipping in fixative versus snap frozen (phosphoproteins [2]): equivalence of the two methods
pervanadate	–	–	–	–	–	–	–	–	–	–	–	–	–	–	–	–	–	–	–	–	time for EGFR Y1173 phosphorylation to rise to a high level (EGFR Y1173): less than 40 minutes; phosphorylation of phospho-endpoints over time ([3]; A549 cells, FIG. 10): hyperphosphorylation over time; also recorded: large surge of phosphorylation; fate of cells after phosphorylation surge ([3]; living cells exposed to phosphatase inhibitor, FIG. 10A): cell death
